PubChem BioAssay (NCI)
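Dose response: 5 concentrations. Exposure: 48 h. Format: 96-well plates. Endpoint: linear interpolation; highest concentration if not reached. Abbreviation: GI50, concentration required for 50% inhibition of growth. TGI: concentration producing complete growth inhibition.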

Experiments:
Assay in all cases: inhibition of tumour cell growth, NCI panel, 48 h
HT29 colon = tested on: HT29 colon
A498 renal = tested on: A498 renal
IGROV1 ovarian = tested on: IGROV1 ovarian
SK-MEL-28 melanoma = tested on: SK-MEL-28 melanoma
TK-10 renal = tested on: TK-10 renal
HCT-15 colon = tested on: HCT-15 colon
ACHN renal = tested on: ACHN renal
U251 CNS = tested on: U251 CNS
SK-MEL-5 melanoma = tested on: SK-MEL-5 melanoma
HCT-116 colon = tested on: HCT-116 colon
SF-268 CNS = tested on: SF-268 CNS
MCF7 breast = tested on: MCF7 breast
HCC-2998 colon = tested on: HCC-2998 colon
SNB-75 CNS = tested on: SNB-75 CNS
NCI-H460 lung = tested on: NCI-H460 lung
RXF 393 renal = tested on: RXF 393 renal
MDA-MB-435 = tested on: MDA-MB-435
MDA-MB-231 breast = tested on: MDA-MB-231 breast
SK-OV-3 ovarian = tested on: SK-OV-3 ovarian
HS 578T breast = tested on: HS 578T breast
UO-31 renal = tested on: UO-31 renal
K-562 leukemia = tested on: K-562 leukemia
SF-539 CNS = tested on: SF-539 CNS
HL-60(TB) leukemia = tested on: HL-60(TB) leukemia
KM12 colon = tested on: KM12 colon
UACC-257 melanoma = tested on: UACC-257 melanoma
HOP-62 NSCLC = tested on: HOP-62 NSCLC
NCI-H522 lung = tested on: NCI-H522 lung
NCI/ADR-RES ovarian = tested on: NCI/ADR-RES ovarian
UACC-62 melanoma = tested on: UACC-62 melanoma
RPMI-8226 leukemia = tested on: RPMI-8226 leukemia
A549 NSCLC = tested on: A549 NSCLC
SN12C renal = tested on: SN12C renal
T-47D breast = tested on: T-47D breast
OVCAR-8 ovarian = tested on: OVCAR-8 ovarian
OVCAR-3 ovarian = tested on: OVCAR-3 ovarian
SR leukemia = tested on: SR leukemia
NCI-H23 lung = tested on: NCI-H23 lung
BT-549 breast = tested on: BT-549 breast
EKVX NSCLC = tested on: EKVX NSCLC
SW-620 colon = tested on: SW-620 colon
NCI-H226 lung = tested on: NCI-H226 lung
SF-295 CNS = tested on: SF-295 CNS
COLO 205 colon = tested on: COLO 205 colon
OVCAR-5 ovarian = tested on: OVCAR-5 ovarian
786-0 renal = tested on: 786-0 renal
DU-145 prostate = tested on: DU-145 prostate
M14 melanoma = tested on: M14 melanoma
MOLT-4 leukemia = tested on: MOLT-4 leukemia
LOX IMVI melanoma = tested on: LOX IMVI melanoma
SNB-19 CNS = tested on: SNB-19 CNS
CAKI-1 renal = tested on: CAKI-1 renal
HOP-92 NSCLC = tested on: HOP-92 NSCLC
PC-3 prostate = tested on: PC-3 prostate
OVCAR-4 ovarian = tested on: OVCAR-4 ovarian
CCRF-CEM leukemia = tested on: CCRF-CEM leukemia
SK-MEL-2 melanoma = tested on: SK-MEL-2 melanoma

## Cc1cc(Cl)ccc1Nc1nc(C(F)(F)F)ccc1C(=O)N/N=C/c1ccc(N(C)C)cc1
HT29 colon
  GI50: 3800 nM
  TGI: > 100000 nM
A498 renal
  GI50: 2590 nM
  TGI: > 100000 nM
IGROV1 ovarian
  GI50: 2030 nM
  TGI: 9110 nM
SK-MEL-28 melanoma
  GI50: 3810 nM
  TGI: > 100000 nM
TK-10 renal
  GI50: 1030 nM
  TGI: > 100000 nM
HCT-15 colon
  GI50: 481 nM
  TGI: > 100000 nM
ACHN renal
  GI50: 2570 nM
  TGI: > 100000 nM
U251 CNS
  GI50: 1420 nM
  TGI: > 100000 nM
SK-MEL-5 melanoma
  GI50: 2560 nM
  TGI: > 100000 nM
HCT-116 colon
  GI50: 743 nM
  TGI: > 100000 nM
SF-268 CNS
  GI50: 1370 nM
  TGI: > 100000 nM
MCF7 breast
  GI50: 1900 nM
  TGI: > 100000 nM
HCC-2998 colon
  GI50: 1430 nM
  TGI: > 100000 nM
SNB-75 CNS
  GI50: 1830 nM
  TGI: > 100000 nM
NCI-H460 lung
  GI50: 1570 nM
  TGI: > 100000 nM
RXF 393 renal
  GI50: 633 nM
  TGI: 44400 nM
MDA-MB-435
  GI50: 4020 nM
  TGI: > 100000 nM
MDA-MB-231 breast
  GI50: 1370 nM
  TGI: > 100000 nM
SK-OV-3 ovarian
  GI50: 2190 nM
  TGI: > 100000 nM
HS 578T breast
  GI50: 2700 nM
  TGI: > 100000 nM
UO-31 renal
  GI50: 2970 nM
  TGI: > 100000 nM
K-562 leukemia
  GI50: 1930 nM
  TGI: > 100000 nM
SF-539 CNS
  GI50: 5870 nM
  TGI: > 100000 nM
HL-60(TB) leukemia
  GI50: 1440 nM
  TGI: > 100000 nM
KM12 colon
  GI50: 3400 nM
  TGI: > 100000 nM
UACC-257 melanoma
  GI50: 4970 nM
  TGI: > 100000 nM
HOP-62 NSCLC
  GI50: 2380 nM
  TGI: > 100000 nM
NCI-H522 lung
  GI50: 3070 nM
  TGI: > 100000 nM
NCI/ADR-RES ovarian
  GI50: 2210 nM
  TGI: > 100000 nM
UACC-62 melanoma
  GI50: 2290 nM
  TGI: > 100000 nM
RPMI-8226 leukemia
  GI50: 2940 nM
  TGI: > 100000 nM
A549 NSCLC
  GI50: 3860 nM
  TGI: > 100000 nM
SN12C renal
  GI50: 3990 nM
  TGI: > 100000 nM
T-47D breast
  GI50: 1200 nM
  TGI: > 100000 nM
OVCAR-8 ovarian
  GI50: 2830 nM
  TGI: > 100000 nM
OVCAR-3 ovarian
  GI50: 563 nM
  TGI: > 100000 nM
SR leukemia
  GI50: 872 nM
  TGI: 6790 nM
NCI-H23 lung
  GI50: 3920 nM
  TGI: > 100000 nM
BT-549 breast
  GI50: 624 nM
  TGI: 6780 nM
EKVX NSCLC
  GI50: 746 nM
  TGI: > 100000 nM
SW-620 colon
  GI50: 2040 nM
  TGI: > 100000 nM
NCI-H226 lung
  GI50: 2290 nM
  TGI: > 100000 nM
SF-295 CNS
  GI50: 1420 nM
  TGI: 4920 nM
COLO 205 colon
  GI50: 2590 nM
  TGI: > 100000 nM
OVCAR-5 ovarian
  GI50: 2400 nM
  TGI: > 100000 nM
786-0 renal
  GI50: 997 nM
  TGI: > 100000 nM
DU-145 prostate
  GI50: 915 nM
  TGI: 8860 nM
M14 melanoma
  GI50: 1200 nM
  TGI: 8750 nM
MOLT-4 leukemia
  GI50: 2220 nM
  TGI: > 100000 nM
LOX IMVI melanoma
  GI50: 700 nM
  TGI: > 100000 nM
SNB-19 CNS
  GI50: 3080 nM
  TGI: > 100000 nM
CAKI-1 renal
  GI50: 404 nM
  TGI: 8520 nM

## O=C1/C(=C\c2cn(CC(O)CN3CCCCC3)c3ccccc23)c2ccccc2N1c1c(Cl)cccc1Cl (stereo not drawn)
A498 renal
  GI50: 1700 nM
  TGI: 3240 nM
TK-10 renal
  GI50: 1820 nM
  TGI: 3290 nM
HCC-2998 colon
  GI50: 1730 nM
  TGI: 3160 nM
SNB-75 CNS
  GI50: 1300 nM
  TGI: 2630 nM
MDA-MB-231 breast
  GI50: 1790 nM
  TGI: 3210 nM
SK-OV-3 ovarian
  GI50: 1630 nM
  TGI: 3130 nM
HS 578T breast
  GI50: 2270 nM
  TGI: 5780 nM
SF-539 CNS
  GI50: 1680 nM
  TGI: 3180 nM
KM12 colon
  GI50: 1890 nM
  TGI: 3370 nM
UACC-62 melanoma
  GI50: 1760 nM
  TGI: 3200 nM
HOP-92 NSCLC
  GI50: 1590 nM
  TGI: 3200 nM
BT-549 breast
  GI50: 1710 nM
  TGI: 3180 nM
SF-295 CNS
  GI50: 1800 nM
  TGI: 3300 nM
OVCAR-5 ovarian
  GI50: 1570 nM
  TGI: 2920 nM
PC-3 prostate
  GI50: 1410 nM
  TGI: 2810 nM
DU-145 prostate
  GI50: 1880 nM
  TGI: 3320 nM
M14 melanoma
  GI50: 1660 nM
  TGI: 3100 nM

## O=C(/C=C\c1ccc(OCCCCCC[P+](c2ccccc2)(c2ccccc2)c2ccccc2)cc1)c1ccc2c(c1)OCCO2
HT29 colon
  GI50: 912 nM
  TGI: 3240 nM
A498 renal
  GI50: 376 nM
  TGI: 1950 nM
TK-10 renal
  GI50: 1580 nM
  TGI: 3810 nM
OVCAR-4 ovarian
  GI50: 415 nM
  TGI: 3420 nM
ACHN renal
  GI50: 1790 nM
  TGI: 3290 nM
CCRF-CEM leukemia
  GI50: 1220 nM
  TGI: 6150 nM
SF-268 CNS
  GI50: 585 nM
  TGI: 3190 nM
HCC-2998 colon
  GI50: 1010 nM
  TGI: 2200 nM
SK-MEL-2 melanoma
  GI50: 1410 nM
  TGI: 3900 nM
SNB-75 CNS
  GI50: 623 nM
  TGI: 2720 nM
NCI-H460 lung
  GI50: 1010 nM
  TGI: 2500 nM
MDA-MB-435
  GI50: 985 nM
  TGI: 2210 nM
SK-OV-3 ovarian
  GI50: 1580 nM
  TGI: 3880 nM
HS 578T breast
  GI50: 827 nM
  TGI: 5020 nM
UO-31 renal
  GI50: 1520 nM
  TGI: 3200 nM
K-562 leukemia
  GI50: 494 nM
  TGI: > 100000 nM
HL-60(TB) leukemia
  GI50: 326 nM
  TGI: 1300 nM
NCI-H522 lung
  GI50: 885 nM
  TGI: 4420 nM
NCI/ADR-RES ovarian
  GI50: 4310 nM
  TGI: > 100000 nM
RPMI-8226 leukemia
  GI50: 296 nM
  TGI: 1300 nM
OVCAR-3 ovarian
  GI50: 423 nM
  TGI: 1610 nM
SR leukemia
  GI50: 656 nM
  TGI: 9070 nM
HOP-92 NSCLC
  GI50: 487 nM
  TGI: 2790 nM
EKVX NSCLC
  GI50: 1500 nM
  TGI: 6720 nM
SW-620 colon
  GI50: 1110 nM
  TGI: 2550 nM
SF-295 CNS
  GI50: 1780 nM
  TGI: 3460 nM
DU-145 prostate
  GI50: 1210 nM
  TGI: 2600 nM
MOLT-4 leukemia
  GI50: 2320 nM
  TGI: 8570 nM
SNB-19 CNS
  GI50: 462 nM
  TGI: 1740 nM
CAKI-1 renal
  GI50: 1840 nM
  TGI: 3880 nM
